# Experimental data from patent US8604048B2, “Pyridocarbazole type compounds and applications thereof” (Centre National de la Recherche Scientifique, priority 2009, dated 2013).
# Experiments:
# HeLa cells = assay: Cell growth test (MTT), HeLa; assay type: cell-based; conditions: Homo sapiens, MTT test after 48 h, read-out: IC50 (concentration necessary to inhibit 50% of cell growth)
# Method: (§1) The cell growth tests are carried out in transparent 96-well microplates (Greiner) after having seeded 100 μl/well of a cell solution having 2·10^5 cells/ml to 5·10^5 cells/ml (depending on the cell lines). After incubating for 24 h at 37° C. with 5% CO2, the culture medium is removed and replaced with solutions of the molecule to be tested at various concentrations. The cells are incubated with these molecules for an additional 48 h at 37° C. with 5% CO2. After elimination of the medium, the cells are washed with blank RPMI (Gibco, Invitrogen) then incubated with 3-(4,5-dimethylthiazol-2-yl)-2,5-diphenyltetrazolium bromide or MTT (0.5 mg/ml final concentration) for 4 h at 37° C. with 5% CO2. MTT (Sigma Aldrich) makes it possible to estimate the viability of the cells by measuring the activity of a mitochondrial enzyme. Indeed, in living cells, mitochondrial dehydrogenases are capable of cleaving the tetrazolium ring, thus leading to the formation of formazan crystals that are insoluble in an aqueous medium. These crystals are dissolved with the addition of a solubilizing solution (isopropanol, 10% Triton X100, 0.1 N HCl). After stirring, the absorbance is measured at 570 nm using the FLUOstar OPTIMA microplate reader. […]
# (§2) The viability of the cells was evaluated using an MTT test after 48 h of exposure with various concentrations of molecules (from 100 μM to 0.001 μM). […]
# MES-SA DX5 cells = assay: Cell growth test (MTT), MES-SA DX5; assay type: cell-based; conditions: Homo sapiens; MES-SA DX5 (multi-drug resistant, P-glycoprotein), MTT test after 48 h; read-out: IC50 (concentration necessary to inhibit 50% of cell growth)
# Method: as §1, §2
# recombinant human LIMK1 = target: T1, recombinant human LIMK1 (Homo sapiens, UniProt P53667); assay: Radiometric LIMK1 kinase assay; assay type: biochemical; conditions: Lineweaver-Burk plots
# T1 construct: 6His (N); purchased Millipore 14-656
# Method: Compounds were tested in a radiometric LIMK1 assay performed in a final volume of 25 μl containing 3 μl of compound or equivalent amount of DMSO as control, 2 μl (1 ng) of N-terminal 6His-tagged recombinant human LIMK1 (Millipore #14-656, in 20 mM MOPS pH=7.0, 1 mM EDTA, 0.01% NP-40, 5% glycerol, 0.1% β-mercaptoethanol, 1 mg·ml^−1 Bovine Serum Albumin) and a mixture containing […] pH=7.0, 200 μM EDTA, 70 μM of recombinant GST-cofilin 1, 25 mM Mg(OAc)2, and 360 μM [γ-^32P]-ATP. Assays were performed at 30° C. for 10 minutes before termination by the addition of 5 μl of 3% orthophosphoric acid. 25 μL aliquots were then spotted onto P80 filter square (4 cm^2). Filters were rinsed three times for 5 minutes by 0.5% orthophosphoric acid at 4° C. and transferred to scintillation vial. Following addition of scintillation cocktail (Ultima Gold, Perkin-Elmer), ^32P incorporation was measured using a scintillation counter.
# FIG. 10 illustrates the inhibition of LIMK1 by Compound 1 (H06). Radiometric LIMK1 kinase assay was performed as described in Example 2; the following conditions were tested: without LIMK1 (‘−LIMK1’), with LIMK1 (1 ng) in presence of 5 μM H06 (‘5 μM H06’), 25 μM H06 (‘25 μM H06’) or with equivalent amount of DMSO (‘Ctl’).
# Error bars represent standard error mean. […]
# [1] = system: microtubules of HeLa cells; assay: Resistance of microtubules to nocodazole-induced depolymerization; assay type: cell-based, Human; conditions: 2 h with compound then 30 minutes nocodazole
# Method: 6. a step of analysis of the effect of the compound to be tested on the dynamics of the microtubule network. For this, HeLa cells are incubated for 2 h with the compound to be tested, then optionally treated with 10 μM nocodazole for 30 minutes.
# FIG. 4 represents the effect of nocodazole on the microtubules of the HeLa cells treated with the Compound 1 of the invention. The HeLa cells are incubated with paclitaxel or without, with the Compound 1 of the invention for 2 h, then exposed for 30 minutes to nocodazole. The amount of tubulin in the cells treated with the Compound 1 of the invention is measured with a microplate reader, then reported as a percentage of the amount of tubulin measured in the wells containing the cells treated with paclitaxel;
# In the living cell, microtubules are dynamic structures, which oscillate between assembling and disassembling phases. Various types of tests may be carried out in order to assess the stabilizing effect of the molecules on the microtubule network. Thus, the binding of paclitaxel to the microtubules, or the binding of stabilizing proteins such as STOP proteins (Bosc et al., 2003) may protect the microtubule network from a depolymerization induced by an incubation of the cells at 4° C. […]
# T1 sequence (P53667 whole entry): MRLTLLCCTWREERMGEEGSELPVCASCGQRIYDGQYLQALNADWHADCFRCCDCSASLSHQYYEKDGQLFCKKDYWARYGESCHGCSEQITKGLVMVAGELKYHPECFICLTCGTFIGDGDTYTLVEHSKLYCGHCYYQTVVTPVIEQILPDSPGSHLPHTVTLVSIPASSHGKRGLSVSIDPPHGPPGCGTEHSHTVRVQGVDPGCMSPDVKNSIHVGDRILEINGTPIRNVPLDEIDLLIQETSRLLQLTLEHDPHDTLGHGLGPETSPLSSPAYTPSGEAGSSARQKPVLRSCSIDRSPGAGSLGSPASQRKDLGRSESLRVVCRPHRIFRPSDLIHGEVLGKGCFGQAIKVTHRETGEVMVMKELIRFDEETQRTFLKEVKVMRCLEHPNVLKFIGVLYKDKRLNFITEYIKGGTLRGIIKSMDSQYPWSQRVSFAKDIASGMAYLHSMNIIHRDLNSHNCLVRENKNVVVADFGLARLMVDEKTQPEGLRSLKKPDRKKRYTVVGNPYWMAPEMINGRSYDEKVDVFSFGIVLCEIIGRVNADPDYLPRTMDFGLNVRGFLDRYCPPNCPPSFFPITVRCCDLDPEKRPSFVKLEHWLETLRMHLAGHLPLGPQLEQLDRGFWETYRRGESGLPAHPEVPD
compound,measurement,setting,value
"Cc1c2cc[nH]c(=O)c2c(C)c2c1[nH]c1ccc(OC(=O)c3ccccc3)cc12 [Compound 1, 9-benzoyloxy-5,11-dimethyl-2H,6H-pyrido[4,3-b]carbazol-1-one]",IC50,HeLa cells,1210 nM
same,IC50,MES-SA DX5 cells,27400 nM
same,Inhibition mechanism on LIMK1,recombinant human LIMK1; 70 nM and 280 nM compound,ATP competitor
same,Ki,recombinant human LIMK1; ATP competition,~60 nM
same,Protection of microtubules from nocodazole-induced depolymerization,[1],"prevents, in a dose-dependent manner"
